In ChEMBL document CHEMBL3867458, “Chiral Separation of Cytotoxic Flavan Derivatives from Daphne giraldii” (J Nat Prod, 2016):

Assays:
[1] = Cytotoxicity activity against human A549 cells assessed as growth inhibition measured after 48 hrs by MTT assay; format: functional, cell-based; conditions: A549, 48 h
[2] = Cytotoxicity activity against human MCF7 cells assessed as growth inhibition measured after 48 hrs by MTT assay; format: functional, cell-based; conditions: MCF7, 48 h

`CC(=O)O[C@H]1C(=O)[C@@]2(C)[C@H]([C@H](OC(=O)c3ccccc3)[C@]3(O)C[C@H](OC(=O)[C@H](O)[C@@H](NC(=O)c4ccccc4)c4ccccc4)C(C)=C1C3(C)C)[C@]1(OC(C)=O)CO[C@@H]1C[C@@H]2O` [PACLITAXEL] gave an IC50 [1] of 30 nM and an IC50 [2] of 60 nM.
